The values below are quoted from earlier work in article PMC9145865, “Effects of Rare Phytocannabinoids on the Endocannabinoid System of Human Keratinocytes” (International Journal of Molecular Sciences, 2022).

SMILES strings stand for the structures.

This data set has as its system transformed human keratinocytes. Further details: method as in PMID 17157480. To be noted: hyperproliferative conditions; ref [46]; cited from earlier work.

Take `C=C(C)[C@@H]1CCC(C)=C[C@H]1c1c(O)cc(CCCCC)cc1O` [CBD, cannabidiol]: the “proliferation of transformed human keratinocytes” value is reported as “inhibit the proliferation”.

Consider `CCCCCc1cc(O)c2c(c1)OC(C)(C)[C@@H]1CCC(C)=C[C@@H]21` [Δ^9-THC, Δ^9-tetrahydrocannabinol], for which the “proliferation of transformed human keratinocytes” value is recorded as “inhibit the proliferation”.
